Laboratory results from ChEMBL document CHEMBL3627714, “Development of a novel class of potent and selective FIXa inhibitors” (Bioorg Med Chem Lett, 2015).

Assays:
Coagulation factor IX = Coagulation factor IX (Homo sapiens, UniProt P00740); experiment: Inhibition of human coagulation factor 9a using fluorescent peptide CH3SO2-D-CHG-Gly-Arg-AFC-AcoH as substrate
Coagulation factor X = Coagulation factor X (Homo sapiens, UniProt P00742); experiment: Inhibition of human coagulation factor 10a using fluorescent peptide nAcetyl-KPR-AFC as substrate
[1] = target: Voltage-gated inwardly rectifying potassium channel KCNH2 (Homo sapiens, UniProt Q12809)
Cytochrome P450 2D6 = Cytochrome P450 2D6 (Homo sapiens, UniProt P10635); experiment: Inhibition of CYP2D6 (unknown origin); type: ADME
Cytochrome P450 2C8 = target: T1, Cytochrome P450 2C8 (Homo sapiens, UniProt P10632); experiment: Inhibition of CYP2C8 (unknown origin); type: ADME
T1 sequence (P10632 whole entry): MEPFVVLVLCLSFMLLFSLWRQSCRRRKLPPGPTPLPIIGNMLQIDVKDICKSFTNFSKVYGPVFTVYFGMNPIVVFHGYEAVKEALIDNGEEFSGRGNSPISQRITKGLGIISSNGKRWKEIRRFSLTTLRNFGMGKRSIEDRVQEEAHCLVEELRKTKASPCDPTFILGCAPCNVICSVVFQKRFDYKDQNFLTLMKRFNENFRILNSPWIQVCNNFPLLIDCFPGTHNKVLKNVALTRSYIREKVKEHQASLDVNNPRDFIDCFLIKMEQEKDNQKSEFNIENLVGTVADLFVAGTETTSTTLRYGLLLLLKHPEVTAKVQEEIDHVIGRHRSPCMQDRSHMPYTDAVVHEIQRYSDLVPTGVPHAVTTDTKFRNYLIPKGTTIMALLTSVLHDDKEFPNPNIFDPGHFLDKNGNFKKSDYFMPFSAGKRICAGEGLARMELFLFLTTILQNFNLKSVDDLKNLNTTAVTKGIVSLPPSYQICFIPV

[2] = Half life in rat at 2 mg/kg, po and 0.5 mg/kg, iv; type: ADME, organism-based; settings: in vivo
[3] = Oral bioavailability in rat at 2 mg/kg; type: ADME, organism-based; settings: in vivo
Cytochrome P450 2C9 = Cytochrome P450 2C9 (Homo sapiens, UniProt P11712); experiment: Inhibition of CYP2C9 (unknown origin); type: ADME
Cytochrome P450 3A4 = Cytochrome P450 3A4 (Homo sapiens, UniProt P08684); experiment: Inhibition of CYP3A4 (unknown origin); type: ADME
Rattus norvegicus = experiment: Dose normalized AUC in rat at 2 mg/kg, po; type: ADME, organism-based; settings: in vivo
[4] = Clearance in rat at 2 mg/kg, po and 0.5 mg/kg, iv; type: ADME, organism-based; settings: in vivo
Plasma [5] = experiment: Anticoagulant activity in 20 pM tissue factor stimulated human CTI-citrated plasma assessed as inhibition of thrombin generation incubated for 5 mins by calibrated automated thrombogram analysis; type: functional, cell-free
Plasma [6] = experiment: Anticoagulant activity in 0.3 pM tissue factor stimulated human CTI-citrated plasma assessed as inhibition of thrombin generation incubated for 5 mins by calibrated automated thrombogram analysis; type: functional, cell-free
Plasma [7] = experiment: Anticoagulant activity in 3 pM recombinant coagulation factor 11a stimulated human CTI-citrated plasma assessed as inhibition of thrombin generation incubated for 5 mins by calibrated automated thrombogram analysis; type: functional, cell-free
Plasma [8] = experiment: Anticoagulant activity in 0.1 pM recombinant coagulation factor 11a stimulated human CTI-citrated plasma assessed as inhibition of thrombin generation incubated for 5 mins by calibrated automated thrombogram analysis; type: functional, cell-free
Plasma [9] = experiment: Anticoagulant activity in 10 pM recombinant coagulation factor 11a stimulated human CTI-citrated plasma assessed as inhibition of thrombin generation incubated for 5 mins by calibrated automated thrombogram analysis; type: functional, cell-free
Plasma [10] = experiment: Anticoagulant activity in 0.3 pM recombinant coagulation factor 11a stimulated human CTI-citrated plasma assessed as inhibition of thrombin generation incubated for 5 mins by calibrated automated thrombogram analysis; type: functional, cell-free
Plasma [11] = experiment: Anticoagulant activity in 10 pM tissue factor stimulated human CTI-citrated plasma assessed as inhibition of thrombin generation incubated for 5 mins by calibrated automated thrombogram analysis; type: functional, cell-free
Plasma [12] = experiment: Anticoagulant activity in 3 pM tissue factor stimulated human CTI-citrated plasma assessed as inhibition of thrombin generation incubated for 5 mins by calibrated automated thrombogram analysis; type: functional, cell-free
Plasma [13] = experiment: Anticoagulant activity in 1 pM tissue factor stimulated human CTI-citrated plasma assessed as inhibition of thrombin generation incubated for 5 mins by calibrated automated thrombogram analysis; type: functional, cell-free
Plasma [14] = experiment: Anticoagulant activity in 1 pM recombinant coagulation factor 11a stimulated human CTI-citrated plasma assessed as inhibition of thrombin generation incubated for 5 mins by calibrated automated thrombogram analysis; type: functional, cell-free

Chain of Cytochrome P450 2D6 (P10635 whole entry): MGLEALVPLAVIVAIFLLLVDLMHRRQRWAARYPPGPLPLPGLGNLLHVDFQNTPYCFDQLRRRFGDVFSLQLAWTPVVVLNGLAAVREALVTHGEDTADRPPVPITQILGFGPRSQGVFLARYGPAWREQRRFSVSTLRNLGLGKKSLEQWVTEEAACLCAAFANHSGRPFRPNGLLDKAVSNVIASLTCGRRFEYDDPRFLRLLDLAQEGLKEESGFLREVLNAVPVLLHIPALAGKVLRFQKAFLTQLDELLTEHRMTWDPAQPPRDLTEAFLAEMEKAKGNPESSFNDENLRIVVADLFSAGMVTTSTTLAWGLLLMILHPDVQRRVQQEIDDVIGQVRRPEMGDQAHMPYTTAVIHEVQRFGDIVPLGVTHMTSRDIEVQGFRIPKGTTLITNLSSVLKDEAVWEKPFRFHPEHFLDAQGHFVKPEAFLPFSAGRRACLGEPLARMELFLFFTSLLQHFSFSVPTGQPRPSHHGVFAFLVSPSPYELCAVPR
Chain of Cytochrome P450 2C9 (P11712 whole entry): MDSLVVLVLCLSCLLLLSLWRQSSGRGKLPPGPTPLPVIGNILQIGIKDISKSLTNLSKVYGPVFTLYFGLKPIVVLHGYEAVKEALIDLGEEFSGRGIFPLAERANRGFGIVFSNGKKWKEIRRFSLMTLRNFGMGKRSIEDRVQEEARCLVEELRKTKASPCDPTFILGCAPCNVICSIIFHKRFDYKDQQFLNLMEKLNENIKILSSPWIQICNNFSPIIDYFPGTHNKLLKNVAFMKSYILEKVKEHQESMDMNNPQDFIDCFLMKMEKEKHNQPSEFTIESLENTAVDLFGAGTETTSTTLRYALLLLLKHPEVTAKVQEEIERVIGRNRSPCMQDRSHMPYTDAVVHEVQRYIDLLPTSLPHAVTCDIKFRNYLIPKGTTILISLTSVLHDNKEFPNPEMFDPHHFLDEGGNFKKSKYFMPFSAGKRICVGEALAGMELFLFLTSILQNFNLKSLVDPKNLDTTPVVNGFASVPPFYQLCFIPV
Chain of Coagulation factor X (P00742 41-179 limits assumed): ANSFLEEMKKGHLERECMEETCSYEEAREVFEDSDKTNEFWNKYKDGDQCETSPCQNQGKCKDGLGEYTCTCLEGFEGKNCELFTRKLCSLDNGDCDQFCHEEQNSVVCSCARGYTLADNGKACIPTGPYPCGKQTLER
Chain of Coagulation factor X (P00742 235-488 limits assumed): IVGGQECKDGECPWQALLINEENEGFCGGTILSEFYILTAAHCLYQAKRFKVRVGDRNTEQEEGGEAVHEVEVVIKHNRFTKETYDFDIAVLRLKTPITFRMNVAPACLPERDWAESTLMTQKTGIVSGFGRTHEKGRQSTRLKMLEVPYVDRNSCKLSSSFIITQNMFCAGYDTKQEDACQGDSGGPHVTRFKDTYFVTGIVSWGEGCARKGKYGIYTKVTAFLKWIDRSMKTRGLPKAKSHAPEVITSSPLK
Chain of Coagulation factor IX (P00740 47-191 limits assumed): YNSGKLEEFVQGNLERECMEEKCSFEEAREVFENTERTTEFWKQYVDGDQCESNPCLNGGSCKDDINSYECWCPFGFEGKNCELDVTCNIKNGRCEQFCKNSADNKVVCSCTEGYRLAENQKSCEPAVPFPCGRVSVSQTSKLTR
Chain of Coagulation factor IX (P00740 227-461 limits assumed): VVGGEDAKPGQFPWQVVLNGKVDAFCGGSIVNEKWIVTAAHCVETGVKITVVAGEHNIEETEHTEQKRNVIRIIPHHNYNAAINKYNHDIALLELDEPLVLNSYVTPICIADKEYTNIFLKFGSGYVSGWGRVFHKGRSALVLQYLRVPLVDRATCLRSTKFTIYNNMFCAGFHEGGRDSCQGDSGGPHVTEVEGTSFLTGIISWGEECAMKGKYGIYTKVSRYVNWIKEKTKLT
Chain of Cytochrome P450 3A4 (P08684 whole entry): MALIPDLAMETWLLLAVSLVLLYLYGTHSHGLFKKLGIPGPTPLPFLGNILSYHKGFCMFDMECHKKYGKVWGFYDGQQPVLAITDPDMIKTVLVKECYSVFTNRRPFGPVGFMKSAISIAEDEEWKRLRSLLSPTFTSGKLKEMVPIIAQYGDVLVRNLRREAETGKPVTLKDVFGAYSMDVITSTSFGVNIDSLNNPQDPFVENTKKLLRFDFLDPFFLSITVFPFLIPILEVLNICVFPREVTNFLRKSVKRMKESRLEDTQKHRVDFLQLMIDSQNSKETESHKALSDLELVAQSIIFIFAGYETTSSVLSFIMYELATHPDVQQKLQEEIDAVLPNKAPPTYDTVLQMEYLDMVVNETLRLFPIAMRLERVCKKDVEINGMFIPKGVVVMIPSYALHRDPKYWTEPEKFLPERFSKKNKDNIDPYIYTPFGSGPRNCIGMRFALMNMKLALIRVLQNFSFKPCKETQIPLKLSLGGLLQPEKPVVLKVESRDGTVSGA
Chain of Voltage-gated inwardly rectifying potassium channel KCNH2 (Q12809 whole entry): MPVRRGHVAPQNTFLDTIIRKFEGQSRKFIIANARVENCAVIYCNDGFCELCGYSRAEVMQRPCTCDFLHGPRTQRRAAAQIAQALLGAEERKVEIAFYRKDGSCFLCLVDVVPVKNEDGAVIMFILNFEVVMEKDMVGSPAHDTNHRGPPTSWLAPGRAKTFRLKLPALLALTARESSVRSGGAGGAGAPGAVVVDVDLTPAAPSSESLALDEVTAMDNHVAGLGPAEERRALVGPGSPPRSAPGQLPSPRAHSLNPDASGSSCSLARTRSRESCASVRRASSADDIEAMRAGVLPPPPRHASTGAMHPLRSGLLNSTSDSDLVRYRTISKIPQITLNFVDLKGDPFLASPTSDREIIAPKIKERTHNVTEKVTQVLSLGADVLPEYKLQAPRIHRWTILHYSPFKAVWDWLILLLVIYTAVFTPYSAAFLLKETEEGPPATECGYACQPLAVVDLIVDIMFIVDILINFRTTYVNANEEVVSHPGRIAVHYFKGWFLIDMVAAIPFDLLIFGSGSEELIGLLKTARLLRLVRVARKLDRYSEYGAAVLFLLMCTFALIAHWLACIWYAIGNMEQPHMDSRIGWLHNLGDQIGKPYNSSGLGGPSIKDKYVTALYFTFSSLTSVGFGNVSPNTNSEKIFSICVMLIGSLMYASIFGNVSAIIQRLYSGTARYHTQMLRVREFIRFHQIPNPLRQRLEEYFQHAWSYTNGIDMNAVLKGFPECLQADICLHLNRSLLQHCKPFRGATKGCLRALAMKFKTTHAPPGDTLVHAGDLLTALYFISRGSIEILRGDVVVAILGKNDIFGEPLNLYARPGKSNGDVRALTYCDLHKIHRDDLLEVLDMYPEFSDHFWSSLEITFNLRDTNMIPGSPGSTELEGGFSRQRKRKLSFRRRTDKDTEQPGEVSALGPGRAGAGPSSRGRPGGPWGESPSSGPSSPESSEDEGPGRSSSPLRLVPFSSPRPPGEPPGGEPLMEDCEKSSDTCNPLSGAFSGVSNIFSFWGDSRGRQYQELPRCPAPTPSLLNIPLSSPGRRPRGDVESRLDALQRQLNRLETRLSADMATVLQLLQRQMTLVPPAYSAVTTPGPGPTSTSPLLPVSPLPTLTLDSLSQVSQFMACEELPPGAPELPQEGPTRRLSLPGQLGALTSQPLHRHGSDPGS

SMILES: Cc1cc2nc([C@@H](CNC(=O)c3c(Cl)cc(-n4cnnc4)cc3Cl)c3ccccc3)[nH]c2cc1C
- Ki (Coagulation factor IX): 3.6 nM
- Ki (Coagulation factor X): 105 nM

SMILES: Cc1cc2nc([C@@H](CNC(=O)c3c(F)cc(-n4cnnc4)cc3Cl)c3ccccc3)[nH]c2cc1C
- Ki (Coagulation factor IX): 15.2 nM
- Ki (Coagulation factor X): 544 nM

SMILES: Cc1cc2nc([C@@H](CNC(=O)c3c(C)cc(-n4cnnc4)cc3Cl)c3ccccc3)[nH]c2cc1C
- Ki (Coagulation factor IX): 8 nM
- Ki (Coagulation factor X): 195 nM

SMILES: Cc1cc2nc([C@@H](CNC(=O)c3c(Cl)cc(-n4cnnc4)cc3C(F)(F)F)c3ccccc3)[nH]c2cc1C
- Ki (Coagulation factor IX): 21.8 nM
- Ki (Coagulation factor X): 340 nM

SMILES: COc1cc(-n2cnnc2)cc(Cl)c1C(=O)NC[C@@H](c1ccccc1)c1nc2cc(C)c(C)cc2[nH]1
- Ki (Coagulation factor IX): 14.8 nM
- Ki (Coagulation factor X): 245 nM

SMILES: Cc1ncn(-c2cc(Cl)c(C(=O)NC[C@@H](c3ccccc3)c3nc4cc(C)c(C)cc4[nH]3)c(Cl)c2)n1
- Ki (Coagulation factor IX): 20.8 nM
- Ki (Coagulation factor X): 2470 nM

SMILES: Cc1cc2nc([C@@H](CNC(=O)c3ccc(-n4cnnc4)cc3Cl)c3ccccc3F)[nH]c2cc1C
- Ki (Coagulation factor IX): 19.3 nM
- Ki (Coagulation factor X): 412 nM

SMILES: Cc1cc2nc([C@@H](CNC(=O)c3ccc(-n4cnnc4)cc3Cl)c3cccc(F)c3)[nH]c2cc1C
- Ki (Coagulation factor IX): 5.7 nM
- Ki (Coagulation factor X): 1010 nM

SMILES: Cc1cc2nc([C@@H](CNC(=O)c3ccc(-n4cnnc4)cc3Cl)c3ccc(F)cc3)[nH]c2cc1C
- Ki (Coagulation factor IX): 8.4 nM
- Ki (Coagulation factor X): 1510 nM

SMILES: Cc1cc2nc([C@@H](CNC(=O)c3ccc(-n4cnnc4)cc3Cl)c3cccnc3)[nH]c2cc1C
- Ki (Coagulation factor IX): 15.4 nM
- Ki (Coagulation factor X): 1600 nM

SMILES: Cc1ncn(-c2cc(Cl)c(C(=O)NC[C@@H](c3cccc(F)c3)c3nc4cc(C)c(Cl)cc4[nH]3)c(Cl)c2)n1
- Ki (Coagulation factor IX): 13.6 nM
- Ki (Coagulation factor X): 15200 nM

SMILES: COc1cc2nc([C@@H](CNC(=O)c3c(Cl)cc(-n4cnc(C)n4)cc3Cl)c3cccc(F)c3)[nH]c2cc1Cl
- IC50 [1]: 10900 nM
- IC50 (Cytochrome P450 2D6): > 50000 nM
- IC50 (Cytochrome P450 2C8): 456 nM
- half-life [2]: 1.03 h
- bioavailability [3]: 7.89%
- IC50 (Cytochrome P450 2C9): 9090 nM
- Ki (Coagulation factor IX): 2.9 nM
- IC50 (Cytochrome P450 3A4): 33300 nM
- AUC/dose (Rattus norvegicus): 0.056 µM·h/mg/kg
- Ki (Coagulation factor X): 1930 nM
- clearance [4]: 42.1 mL/min/kg

SMILES: Cc1ncn(-c2cc(Cl)c(C(=O)NC[C@@H](c3cccc(F)c3)c3nc4ccc(Cl)cc4[nH]3)c(Cl)c2)n1
- IC50 (Cytochrome P450 2D6): 30400 nM
- IC50 (Cytochrome P450 2C8): 5280 nM
- half-life [2]: 0.8 h
- bioavailability [3]: 48.2%
- IC50 (Cytochrome P450 2C9): 19800 nM
- Ki (Coagulation factor IX): 9.8 nM
- IC50 (Cytochrome P450 3A4): > 50000 nM
- AUC/dose (Rattus norvegicus): 1.74 µM·h/mg/kg
- Ki (Coagulation factor X): 20700 nM
- clearance [4]: 8.77 mL/min/kg

SMILES: Cc1ncn(-c2cc(Cl)c(C(=O)NC[C@@H](c3cccc(F)c3)c3nc4c(C)cc(Cl)cc4[nH]3)c(Cl)c2)n1
- IC50 [1]: 3050 nM
- IC50 (Cytochrome P450 2D6): > 50000 nM
- IC50 (Cytochrome P450 2C8): 4040 nM
- half-life [2]: 1.66 h
- bioavailability [3]: 57.3%
- IC50 (Cytochrome P450 2C9): 22400 nM
- Ki (Coagulation factor IX): 6.2 nM
- IC50 (Cytochrome P450 3A4): > 50000 nM
- AUC/dose (Rattus norvegicus): 4.36 µM·h/mg/kg
- Ki (Coagulation factor X): > 28900 nM
- clearance [4]: 3.84 mL/min/kg

SMILES: Cc1ncn(-c2cc(Cl)c(C(=O)NC[C@@H](c3cccc(F)c3)c3ccc4[nH]c(C)nc4c3)c(Cl)c2)n1
- IC50 (Plasma [5]): 1900 nM
- IC50 (Plasma [6]): 1640 nM
- IC50 [1]: 19900 nM
- IC50 (Plasma [7]): 7160 nM
- IC50 (Plasma [8]): 303 nM
- IC50 (Cytochrome P450 2D6): 31600 nM
- IC50 (Cytochrome P450 2C8): 1570 nM
- half-life [2]: 1.24 h
- bioavailability [3]: 11.1%
- IC50 (Plasma [9]): 22400 nM
- IC50 (Plasma [10]): 1600 nM
- IC50 (Plasma [11]): 1850 nM
- IC50 (Cytochrome P450 2C9): 24900 nM
- Ki (Coagulation factor IX): 9.1 nM
- IC50 (Cytochrome P450 3A4): > 50000 nM
- IC50 (Plasma [12]): 953 nM
- IC50 (Plasma [13]): 1160 nM
- IC50 (Plasma [14]): 2520 nM
- AUC/dose (Rattus norvegicus): 0.097 µM·h/mg/kg
- Ki (Coagulation factor X): 2800 nM
- clearance [4]: 36.5 mL/min/kg

SMILES: Cc1ncn(-c2cc(Cl)c(C(=O)NC[C@@H](c3cccc(F)c3)c3cnc4[nH]c(C)cc4c3)c(Cl)c2)n1
- Ki (Coagulation factor IX): 3.7 nM
- Ki (Coagulation factor X): > 28900 nM

SMILES: Cc1ncn(-c2cc(Cl)c(C(=O)NC[C@@H](c3cccc(F)c3)c3nc4c(F)ccc(C)c4c(=O)[nH]3)c(Cl)c2)n1
- IC50 [1]: > 60000 nM
- IC50 (Cytochrome P450 2D6): > 50000 nM
- IC50 (Cytochrome P450 2C8): 24400 nM
- half-life [2]: 1.12 h
- bioavailability [3]: 14.1%
- IC50 (Cytochrome P450 2C9): 42800 nM
- Ki (Coagulation factor IX): 1 nM
- IC50 (Cytochrome P450 3A4): > 50000 nM
- AUC/dose (Rattus norvegicus): 0.284 µM·h/mg/kg
- Ki (Coagulation factor X): > 28900 nM
- clearance [4]: 15.5 mL/min/kg

SMILES: Cc1ncn(-c2cc(Cl)c(C(=O)NC[C@@H](c3cccc(F)c3)c3cc(=O)c4c(C)ccc(F)c4[nH]3)c(Cl)c2)n1
- Ki (Coagulation factor IX): 3.3 nM
- Ki (Coagulation factor X): > 28900 nM

SMILES: Cc1ncn(-c2cc(Cl)c(C(=O)NC[C@@H](c3cccc(F)c3)c3ccc4c(C)ccc(F)c4n3)c(Cl)c2)n1
- Ki (Coagulation factor IX): 10.4 nM
- Ki (Coagulation factor X): > 28900 nM

SMILES: COc1ccc(-n2nc(C(N)=O)c3c2C(=O)N(c2ccc(N4CCCCC4=O)cc2)CC3)cc1 [APIXABAN]
- IC50 (Plasma [5]): 299 nM
- IC50 (Plasma [6]): 47.6 nM
- IC50 (Plasma [7]): 747 nM
- IC50 (Plasma [8]): 51.3 nM
- IC50 (Plasma [9]): 2410 nM
- IC50 (Plasma [10]): 116 nM
- IC50 (Plasma [11]): 159 nM
- IC50 (Plasma [12]): 48.4 nM
- IC50 (Plasma [13]): 33.7 nM
- IC50 (Plasma [14]): 190 nM
